According to US10912840B2, “Conjugates for treating diseases caused by PSMA expressing cells” (priority 2012, dated 2021):
pIC50: −log10 of the molar value. “Also recorded” adds a separate entry of the source. Like-named read-outs stand apart in the source and are kept apart here.

Assays:
PSMA = target: T1, PSMA (Homo sapiens, UniProt Q04609); type: binding
T1 construct: endogenous in cells; host or cells: LNCaP cells
Procedure: PSMA relative affinity assay. LNCaP cells are seeded in 12-well Corning Cell-BIND plates and allowed to form adherent monolayers overnight in RPMI/HIFCS. Spent incubation media is replaced with RPMI supplemented with 10% HIFCS and containing a standard PSMA binding ligand, such as 100 nM of 3H-PMPA or a competing compound, such as EC0652, Re-EC652, or ^99mTc-EC0652, in the absence and presence of increasing concentrations of test compound, such as unlabeled PMPA, or a compound described herein, such as EC1169 or EC1568, a negative control intermediate lacking a PSMA binding ligand which is used as a negative control. Cells are incubated for 1 h at 37° C. and then rinsed three times with 0.5 mL of PBS. Five hundred microliters of 1% sodium dodecylsulfate in PBS are added to each well; after 5 min, cell lysates are collected, transferred to individual tubes or to vials containing 5 mL of scintillation cocktail, and then counted for radioactivity. Cells exposed to only the standard PSMA binding ligand, such as 3H-PMPA, or competing compound, such as ^99mTc-EC0652, in FFRPMI (no competitor) are designated as negative controls, whereas cells exposed to the standard PSMA binding ligand, such as 3H-PMPA, plus 1 mM unlabeled PMPA or competing compound, such as ^99mTc-EC0652 plus Re-EC0652, serve as positive controls. Disintegrations per minute (DPMs) measured in the latter samples (representing nonspecific binding of label) are subtracted from the DPM values from all samples. Relative affinities are defined as the inverse molar ratio of compound required to displace 50% of the standard PSMA binding ligand, such as ^3H-PMPA, or the competing compound, such as ^99mTc-EC0652, bound to PSMA on LNCaP cells, and the relative affinity of the standard PSMA binding ligand, such as PMPA, or the competing compound, such as Re-EC0652, for PSMA is set to 1.

[1] = Gross toxicity (body weight change) in LNCaP tumor-bearing mice
Procedure: Four to seven week-old male nu/nu mice (Harlan Sprague Dawley. Inc., Indianapolis, Ind.) are maintained on a standard 12 h light-dark cycle and fed ad libitum with rodent diet #2918 (Harlan Teklad, Madison, Wis.) for the duration of the experiment. LNCaP cells are grown in RPMI in 10% HIFCS at 37° C. in a 5% CO2/95% air-humidified atmosphere, harvested and resuspended on ice in matrigel solution (50% RPMI+50% matrigel high concentration. BD#354248) to a final concentration of 1×10^6 cells/50 μL. Cell solution and injection needles (28 gauge) are kept on ice prior to injection and 50 μL of the cell solution injected in the subcutis of the dorsal medial area. Mice are divided into groups of five, seven, or nine, and freshly prepared test compound solutions are injected through the lateral tail vein under sterile conditions in a volume of 200 μL of phosphate-buffered saline (PBS). […] Growth of each s.c. tumor is followed by measuring the tumor three times per week during treatment and twice per week thereafter, until a volume of 1500 mm^3 is reached. Tumors are measured in two perpendicular directions using Vernier calipers, and their volumes are calculated as 0.5×L×W^2, where L=measurement of longest axis in mm and W=measurement of axis perpendicular to L in mm. As a general measure of gross toxicity, changes in body weights are determined on the same schedule as tumor volume measurements. Maximum % weight loss on any given day due to treatment is determined for each mouse. Survival of animals is monitored daily. Animals that are moribund (or unable to reach food or water) are euthanized by CO2 asphyxiation.

LNCaP cells = conditions: human
Procedure: LNCaP cells are seeded in 24-well Corning Cell-BIND plates and allowed to form nearly confluent monolayers overnight in RPMI/HIFCS. Thirty minutes prior to the addition of test compound, such as a compound described herein, spent medium is aspirated from all wells and replaced with fresh RPMI. Following one rinse with 1 mL of fresh RPMI/HIFCS, each well receives 1 mL of media containing increasing concentrations of test compound (four wells per sample). Test compound treated cells are pulsed for 2 h at 37° C., rinsed four times with 0.5 mL of media, and then chased in 1 mL of fresh media up to 70 h. Spent media is aspirated from all wells and replaced with fresh media containing 5 μCi/mL ^3H-thymidine. Following a further 4 h 37° C. incubation, cells are washed three times with 0.5 mL of PBS and then treated with 0.5 mL of ice-cold 5% trichloroacetic acid per well. After 15 min, the trichloroacetic acid is aspirated and the cells are solubilized by the addition of 0.5 mL of 0.25 N sodium hydroxide for 15 min. Four hundred and fifty microliters of each solubilized sample is transferred to scintillation vials containing 3 mL of Ecolume scintillation cocktail and then counted in a liquid scintillation counter. Final tabulated results are expressed as the percentage of ^3H-thymidine incorporation relative to untreated controls.

[2] = system: PSMA-positive LNCaP human xenografts; experiment: Activity in vivo against PSMA+ tumor implanted in mice; conditions: for tumor growth in vivo compared to untreated animals / cures (cured/tested animals; no tumor growth during entire observation period): 2 μmol/kg, LNCaP xenografts; for tumor growth in vivo compared to untreated animals: TIW for 2 weeks, beginning on day 21 post tumor implant; for cures (cured/tested animals; no tumor growth during entire observation period): TIW
Description: Survival of animals is monitored daily.

[3] = type: in vivo; conditions: rats, i.v., 0.33 and 0.51 μmol/kg, BIW, 2 weeks
[4] = PMPA = 1.0 (normalized), in 10% serum/FDRPMI
[5] = 10 mg/kg, BIW, 2 weeks, MTD, LNCaP-tumor bearing mice

T1 sequence (Q04609 whole entry): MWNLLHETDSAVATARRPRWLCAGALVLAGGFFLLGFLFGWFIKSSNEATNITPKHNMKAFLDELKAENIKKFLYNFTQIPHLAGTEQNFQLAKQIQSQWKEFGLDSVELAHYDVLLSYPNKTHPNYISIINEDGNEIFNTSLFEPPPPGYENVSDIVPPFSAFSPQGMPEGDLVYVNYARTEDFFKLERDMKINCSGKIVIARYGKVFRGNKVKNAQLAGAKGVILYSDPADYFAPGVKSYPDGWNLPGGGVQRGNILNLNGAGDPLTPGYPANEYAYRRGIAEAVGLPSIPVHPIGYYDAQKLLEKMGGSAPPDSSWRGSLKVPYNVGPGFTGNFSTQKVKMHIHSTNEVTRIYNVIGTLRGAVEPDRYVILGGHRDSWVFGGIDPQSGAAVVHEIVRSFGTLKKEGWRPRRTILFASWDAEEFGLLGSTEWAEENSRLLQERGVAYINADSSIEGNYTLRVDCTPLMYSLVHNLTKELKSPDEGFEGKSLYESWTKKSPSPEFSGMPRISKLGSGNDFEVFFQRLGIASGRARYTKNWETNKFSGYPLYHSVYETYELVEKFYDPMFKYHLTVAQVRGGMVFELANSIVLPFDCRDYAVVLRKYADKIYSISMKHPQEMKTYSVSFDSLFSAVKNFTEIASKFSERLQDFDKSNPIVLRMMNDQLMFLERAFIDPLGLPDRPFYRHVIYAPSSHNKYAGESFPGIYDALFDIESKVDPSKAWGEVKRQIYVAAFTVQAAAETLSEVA

Structure (SMILES): O=C(O)CC[C@H](NC(=O)N[C@@H](CCCCNC(=O)Nc1ccc(CC(=O)O)cc1)C(=O)O)C(=O)O [EC1080]
- Relative PSMA Binding Affinity (fold over PMPA = 1.0) (PSMA): 6 fold
- relative affinity for PSMA (PSMA; [4]): 6 ×

Structure (SMILES): CCCCCCCOCN(C(=O)[C@@H](NC(=O)[C@H]1CCCCN1C)C(C)CC)[C@H](C[C@@H](OC(C)=O)c1nc(C(=O)N[C@@H](Cc2ccc(O)cc2)C[C@H](C)C(=O)NNC(=O)OCCSSC[C@H](NC(=O)[C@H](CC(=O)O)NC(=O)[C@H](CC(=O)O)NC(=O)Cc2ccc(CNC(=O)NCCCC[C@H](NC(=O)N[C@@H](CCC(=O)O)C(=O)O)C(=O)O)cc2)C(=O)O)cs1)C(C)C (stereo partly shown) [EC1721]
- gross animal toxicity (weight loss, major organ tissue degeneration) ([1]; 2 μmol/kg, TIW, 2 weeks): do not exhibit gross animal toxicity
- pIC50 (LNCaP cells): 7.18

Structure (SMILES): CCCCCCOCN(C(=O)[C@@H](NC(=O)[C@H]1CCCCN1C)C(C)CC)[C@H](C[C@@H](OC(C)=O)c1nc(C(=O)N[C@@H](Cc2ccc(O)cc2)C[C@H](C)C(=O)NNC(=O)OCCSSC[C@H](NC(=O)[C@H](CC(=O)O)NC(=O)[C@H](CC(=O)O)NC(=O)Cc2ccc(CNC(=O)NCCCC[C@H](NC(=O)N[C@@H](CCC(=O)O)C(=O)O)C(=O)O)cc2)C(=O)O)cs1)C(C)C (stereo partly shown) [EC1720]
- gross animal toxicity (weight loss, major organ tissue degeneration) ([1]; 2 μmol/kg, TIW, 2 weeks): do not exhibit gross animal toxicity
- pIC50 (LNCaP cells): 7.27

Structure (SMILES): CC(=O)O[C@@]12CO[C@@H]1C[C@H](O)[C@@]1(C)C(=O)[C@H](O)C3=C(C)[C@@H](OC(=O)[C@H](O)[C@@H](NC(=O)OC(C)(C)C)c4ccccc4)C[C@@](O)([C@@H](OC(=O)c4ccccc4)[C@H]21)C3(C)C [docetaxel, reference compound]
- anti-tumor activity [2, 5]: only modest anti-tumor activity
- cures (cured/tested animals) [2, 5]: 1/4
- gross toxicity ([1]; 10 mg/kg, BIW, 2 weeks, MTD): high gross toxicity
- weight loss ([1]; 10 mg/kg, BIW, 2 weeks, MTD): 18%

Structure (SMILES): CCCC(=O)OCN(C(=O)[C@@H](NC(=O)[C@H]1CCCCN1C)C(C)CC)[C@H](C[C@@H](OC(C)=O)c1nc(C(=O)N[C@@H](Cc2ccc(O)cc2)C[C@H](C)C(=O)NNC(=O)OCCSSC[C@H](NC(=O)[C@@H](CC(=O)O)NC(=O)[C@@H](CC(=O)O)NC(=O)Cc2ccc(CNC(=O)NCCCC[C@H](NC(=O)N[C@@H](CCC(=O)O)C(=O)O)C(=O)O)cc2)C(=O)O)cs1)C(C)C (stereo partly shown) [EC1308]
- Relative PSMA Binding Affinity (fold over PMPA = 1.0) (PSMA): 20 fold

Structure (SMILES): CCCC(=O)OCN(C(=O)[C@@H](NC(=O)[C@H]1CCCCN1C)C(C)CC)[C@H](C[C@@H](OC(C)=O)c1nc(C(=O)N[C@@H](Cc2ccc(O)cc2)C[C@H](C)C(=O)NNC(=O)OCCSSC[C@H](NC(=O)[C@H](CC(=O)O)NC(=O)[C@H](CCCNC(=N)N)NC(=O)Cc2ccc(CNC(=O)NCCCC[C@H](NC(=O)N[C@@H](CCC(=O)O)C(=O)O)C(=O)O)cc2)C(=O)O)cs1)C(C)C (stereo partly shown) [EC1310]
- Relative PSMA Binding Affinity (fold over PMPA = 1.0) (PSMA): 10 fold

Structure (SMILES): O=C(O)CC[C@H](NC(=O)N[C@@H](CCCCNC(=O)Nc1ccc(CC(=O)N[C@@H](CC(=O)O)C(=O)N[C@@H](CC(=O)O)C(=O)N[C@@H](CS)C(=O)O)cc1)C(=O)O)C(=O)O [EC1067]
- Relative PSMA Binding Affinity (fold over PMPA = 1.0) (PSMA): 30 fold
- relative affinity for PSMA (PSMA; [4]): 30 ×

Structure (SMILES): CCCC(=O)OCN(C(=O)[C@@H](NC(=O)[C@H]1CCCCN1C)C(C)CC)[C@H](C[C@@H](OC(C)=O)c1nc(C(=O)N[C@@H](Cc2ccc(O)cc2)C[C@H](C)C(=O)NNC(=O)OCCSSC[C@H](NC(=O)[C@H](CC(=O)O)NC(=O)[C@H](CC(=O)O)NC(=O)Cc2ccc(CNC(=O)NCCCC[C@H](NC(=O)N[C@@H](CCC(=O)O)C(=O)O)C(=O)O)cc2)C(=O)O)cs1)C(C)C (stereo partly shown) [EC1169]
- gross animal toxicity (weight loss, major organ tissue degeneration) ([1]; 2 μmol/kg, TIW, 2 weeks): absence of weight loss or major organ tissue degeneration
- gross toxicity compared to docetaxel ([1]; 2 μmol/kg, TIW, 2 weeks vs docetaxel 10 mg/kg, BIW, MTD): substantially less gross animal toxicity compared to docetaxel; also recorded: less toxic than docetaxel
- gross animal toxicity (weight loss, major organ tissue degeneration) ([1]; 2 μmol/kg, TIW, 2 weeks, listed as EC169): do not exhibit gross animal toxicity
- pIC50 (LNCaP cells): 7.89
- hematological toxicity in red blood cells and white blood cells [3]: significantly lower than untreated controls

Structure (SMILES): O=C(O)CC[C@H](NC(=O)N[C@@H](CCCCNC(=O)NCc1ccc(CC(=O)N[C@@H](CC(=O)O)C(=O)N[C@@H](CC(=O)O)C(=O)NCC(=O)O)cc1)C(=O)O)C(=O)O [EC1168]
- Relative PSMA Binding Affinity (fold over PMPA = 1.0) (PSMA): 17 fold
- relative affinity for PSMA (PSMA; [4]): 17 ×

Structure (SMILES): CCCC(=O)OCN(C(=O)[C@@H](NC(=O)[C@H]1CCCCN1C)C(C)CC)[C@H](C[C@@H](OC(C)=O)c1nc(C(=O)N[C@@H](Cc2ccc(O)cc2)C[C@H](C)C(=O)NNC(=O)OCCSSC[C@H](NC(=O)[C@H](Cc2ccccc2)NC(=O)[C@H](CC(=O)O)NC(=O)NCCCC[C@H](NC(C)=O)C(=O)O)C(=O)O)cs1)C(C)C (stereo partly shown) [EC1568, reference compound]
- Relative PSMA Binding Affinity (fold over PMPA = 1.0) (PSMA): 0 fold

Structure (SMILES): CCCCCOCN(C(=O)[C@@H](NC(=O)[C@H]1CCCCN1C)[C@@H](C)CC)[C@H](C[C@@H](OC(C)=O)c1nc(C(=O)N[C@@H](Cc2ccc(O)cc2)C[C@H](C)C(=O)NNC(=O)OCCSSC[C@H](NC(=O)[C@H](CC(=O)O)NC(=O)[C@H](CC(=O)O)NC(=O)Cc2ccc(CNC(=O)NCCCC[C@H](NC(=O)N[C@@H](CCC(=O)O)C(=O)O)C(=O)O)cc2)C(=O)O)cs1)C(C)C [EC1719]
- pIC50: 7.43
- tumor growth in vivo compared to untreated animals [2]: efficacious in decreasing tumor growth
- cures (cured/tested animals; no tumor growth during entire observation period) ([2]; 2 weeks): 2/7
- gross animal toxicity (weight loss, major organ tissue degeneration) ([1]; 2 μmol/kg, TIW, 2 weeks): do not exhibit gross animal toxicity

Structure (SMILES): O=C(O)CC[C@H](NC(=O)N[C@@H](CCCCNC(=O)NCc1ccc(CC(=O)N[C@@H](CC(=O)O)C(=O)N[C@@H](CC(=O)O)C(=O)N[C@@H](CS)C(=O)O)cc1)C(=O)O)C(=O)O [EC1167]
- Relative PSMA Binding Affinity (fold over PMPA = 1.0) (PSMA): 11 fold

Structure (SMILES): O=C(O)CC[C@H](CP(=O)(O)O)C(=O)O [PMPA, reference compound]
- relative affinity for PSMA (PSMA): 1.0 ×

Structure (SMILES): CCCOCN(C(=O)[C@@H](NC(=O)[C@H]1CCCCN1C)[C@@H](C)CC)[C@H](C[C@@H](OC(C)=O)c1nc(C(=O)N[C@@H](Cc2ccc(O)cc2)C[C@H](C)C(=O)NNC(=O)OCCSSC[C@H](NC(=O)[C@H](CC(=O)O)NC(=O)[C@H](CC(=O)O)NC(=O)Cc2ccc(CNC(=O)NCCCC[C@H](NC(=O)N[C@@H](CCC(=O)O)C(=O)O)C(=O)O)cc2)C(=O)O)cs1)C(C)C [EC1718]
- pIC50: 7.75
- tumor growth in vivo compared to untreated animals [2]: efficacious in decreasing tumor growth
- cures (cured/tested animals; no tumor growth during entire observation period) ([2]; 2 weeks): 1/7
- gross animal toxicity (weight loss, major organ tissue degeneration) ([1]; 2 μmol/kg, TIW, 2 weeks): do not exhibit gross animal toxicity

Structure (SMILES): O=C(O)CC[C@H](NC(=O)N[C@@H](CCC(=O)O)C(=O)O)C(=O)O [DUPA, reference compound]
- relative affinity for PSMA (PSMA): 0.05 ×

Structure (SMILES): CCCCOCN(C(=O)[C@@H](NC(=O)[C@H]1CCCCN1C)[C@@H](C)CC)[C@H](C[C@@H](OC(C)=O)c1nc(C(=O)N[C@@H](Cc2ccc(O)cc2)C[C@H](C)C(=O)NNC(=O)OCCSSC[C@H](NC(=O)[C@H](CC(=O)O)NC(=O)[C@H](CC(=O)O)NC(=O)Cc2ccc(CNC(=O)NCCCC[C@H](NC(=O)N[C@@H](CCC(=O)O)C(=O)O)C(=O)O)cc2)C(=O)O)cs1)C(C)C [EC1677]
- pIC50: 7.68
- tumor growth in vivo compared to untreated animals [2]: efficacious in decreasing tumor growth
- cures (cured/tested animals; no tumor growth during entire observation period) ([2]; 2 weeks): 4/7
- gross animal toxicity (weight loss, major organ tissue degeneration) ([1]; 2 μmol/kg, TIW, 2 weeks): do not exhibit gross animal toxicity
